Source: patent US20230382895A1, “CRYSTALLINE FORM III OF MELANOCORTIN RECEPTOR AGONIST COMPOUND AND PREPARATION METHOD THEREFOR” (LG CHEM, LTD., priority 2020, published 2023)
“Also recorded” adds a separate entry of the source. Where a name gives a salt, the structure may show the parent alone.

Experiment: Stability assessment by HPLC after storage under accelerated (40° C., 75% RH, open) or harsh (80° C., sealed) condition
Assay type: physicochemical
Settings: for Stability (HPLC), Open AOC: open state, accelerated condition (40° C., 75% RH); for Stability (HPLC), Closed STR: sealed state, harsh condition, oven at 80° C.
Experimental: About 10-30 mg of the sample was stored for 4 weeks in an open state under the accelerated condition (40° C., 75% RH) or in a sealed state under the harsh condition in an oven at 80° C. [table]

Stability (HPLC), Initial (Initial, before storage, in % (unit assumed)): 99.68
Stability (HPLC), Open AOC (Week 2, in % (unit assumed)): 89.27
Stability (HPLC), Closed STR (Week 2, in % (unit assumed)): 99.11
Stability (HPLC), Open AOC (Week 4, in % (unit assumed)): 99.26
Stability (HPLC), Closed STR (Week 4, in % (unit assumed)): 98.76
Compound: CC(C)C(=O)N([C@H]1C[C@@H](C(=O)N2CCOCC2)N(C(=O)[C@@H]2CN(C(C)(C)C)C[C@H]2c2ccc(Cl)cc2)C1)[C@H]1CC[C@@H](C)CC1 [Example 1, Is7-((3S,5S)-1-((3S,4R)-1-(tert-butyl)-4-(4-chlorophenyl)pyrrolidine-3-carbonyl)-5-(morpholine-4-carbonyl)pyrrolidin-3-yl)-N-((is, 4R)-4-methylcyclohexyl) isobutyramide hydrochloride]
Chemical stability for 4 weeks (4 weeks, accelerated condition (40° C., 75% RH) and harsh condition (80° C.), listed as crystalline form III, hydrochloride): showed chemical stability; also recorded: exhibited chemical stability
